Laboratory results published in the NIST ThermoML archive (doi:10.1016/j.fluid.2017.06.019).

Settings: Coaxial cylinder method

CCC [propane]
thermal conductivity [W/m/K]
Settings | 366.45 K | 367.32 K
4010 kPa, Gas | – | 0.04654
4012 kPa, Gas | – | 0.04665
4013 kPa, Liquid | 0.1345 | –
4014 kPa, Gas | – | 0.04687
4014 kPa, Liquid | 0.132 | –
4015 kPa, Liquid | 0.1298 | –
4016 kPa, Liquid | 0.127 | –
4017 kPa, Liquid | 0.1241 | –
4018 kPa, Liquid | 0.1223 | –
4019 kPa, Liquid | 0.1202 | –
4020 kPa, Liquid | 0.1175 | –
4021 kPa, Liquid | 0.1145 | –
4022 kPa, Liquid | 0.1126 | –
4023 kPa, Liquid | 0.1108 | –
4024 kPa, Liquid | 0.1089 | –
4025 kPa, Gas | – | 0.04792
4025 kPa, Liquid | 0.107 | –
4026 kPa, Gas | – | 0.05076
4026 kPa, Liquid | 0.1052 | –
4027 kPa, Gas | – | 0.05394
4027 kPa, Liquid | 0.1035 | –
4028 kPa, Gas | – | 0.05642
4028 kPa, Liquid | 0.1018 | –
4029 kPa, Gas | – | 0.05957
4029 kPa, Liquid | 0.1003 | –
4030 kPa, Gas | – | 0.06288
4030 kPa, Liquid | 0.09876 | –
4031 kPa, Gas | – | 0.06655
4031 kPa, Liquid | 0.09718 | –
4032 kPa, Gas | – | 0.06997
4032 kPa, Liquid | 0.09578 | –
4033 kPa, Gas | – | 0.07414
4033 kPa, Liquid | 0.09438 | –
4034 kPa, Gas | – | 0.07824
4034 kPa, Liquid | 0.0931 | –
4035 kPa, Gas | – | 0.08231
4035 kPa, Liquid | 0.09185 | –
4036 kPa, Gas | – | 0.08718
4036 kPa, Liquid | 0.09064 | –
4037 kPa, Gas | – | 0.09169
4037 kPa, Liquid | 0.08946 | –
4038 kPa, Gas | – | 0.09661
4038 kPa, Liquid | 0.0883 | –
4039 kPa, Gas | – | 0.1018
4039 kPa, Liquid | 0.08718 | –
4040 kPa, Gas | – | 0.1068
4040 kPa, Liquid | 0.08608 | –
4041 kPa, Gas | – | 0.1118
4042 kPa, Gas | – | 0.1171
4043 kPa, Gas | – | 0.1226
4044 kPa, Gas | – | 0.1282
4045 kPa, Gas | – | 0.134
4045 kPa, Liquid | 0.08137 | –
4046 kPa, Gas | – | 0.1397
4047 kPa, Gas | – | 0.145
4048 kPa, Gas | – | 0.1514
4050 kPa, Gas | – | 0.1645
4050 kPa, Liquid | 0.0775 | –
4051 kPa, Gas | – | 0.1714
4052 kPa, Gas | – | 0.1781
4053 kPa, Gas | – | 0.1856
4054 kPa, Gas | – | 0.1925
4055 kPa, Gas | – | 0.1998
4055 kPa, Liquid | 0.07438 | –
4056 kPa, Gas | – | 0.2078
4057 kPa, Gas | – | 0.2153
4057 kPa, Liquid | 0.07324 | –
4058 kPa, Gas | – | 0.2233
4059 kPa, Gas | – | 0.2315
4060 kPa, Liquid | – | 0.2315
4061 kPa, Liquid | – | 0.2164
4062 kPa, Liquid | – | 0.2079
4063 kPa, Liquid | – | 0.1998
4064 kPa, Liquid | – | 0.1925
4065 kPa, Liquid | 0.06968 | 0.1857
4070 kPa, Liquid | 0.06809 | –
4075 kPa, Liquid | 0.0668 | –
4080 kPa, Liquid | 0.0658 | –
4085 kPa, Liquid | 0.06508 | –
4090 kPa, Liquid | 0.06449 | –
4095 kPa, Liquid | 0.06445 | –
4100 kPa, Liquid | 0.06429 | –
4105 kPa, Liquid | 0.06425 | –
4110 kPa, Liquid | 0.06421 | –
4115 kPa, Liquid | 0.06418 | –
4120 kPa, Liquid | 0.06414 | –
4125 kPa, Liquid | 0.0641 | –
4130 kPa, Liquid | 0.06408 | –
4140 kPa, Liquid | 0.06408 | –
4150 kPa, Liquid | 0.06404 | –
4160 kPa, Liquid | 0.064 | –
4170 kPa, Liquid | 0.06396 | –
4180 kPa, Liquid | 0.06392 | –
4190 kPa, Liquid | 0.06394 | –
4200 kPa, Liquid | 0.06392 | –
4210 kPa, Liquid | 0.06392 | –
4220 kPa, Liquid | 0.06388 | –
4230 kPa, Liquid | 0.06388 | –
4240 kPa, Liquid | 0.06387 | –
4250 kPa, Liquid | 0.06387 | –
4260 kPa, Liquid | 0.0639 | –
4270 kPa, Liquid | 0.0639 | –
4280 kPa, Liquid | 0.0639 | –
4290 kPa, Liquid | 0.0639 | –
4300 kPa, Liquid | 0.06392 | –
4330 kPa, Liquid | 0.06396 | –
4400 kPa, Liquid | 0.0641 | –
4410 kPa, Liquid | 0.06416 | –
4477 kPa, Liquid | 0.06435 | –
4491 kPa, Liquid | 0.06439 | –
